The results in this text go back to patent US6338296B1, “Release device for slowly releasing sprout inhibitor into packages of potatoes” (priority 1996, dated 2002).

The subject of this test is potatoes. Description: sprout inhibition in a ventilated package of potatoes with a pouch of silica gel carrying 1,4-DMN. In kind it is in vivo, potato. From the text:
A package containing ten pounds of potatoes (approximately 5 kg) can be treated according to the instant invention with about 5 grams of silica gel contacted with 2 grams of 1,4-DMN. The substantially saturated silica gel may be placed in a pouch made of cotton fabric having a tight weave. The weave is sufficiently tight that the minute, generally less than 0.5 mm and often less than 0.2 mm, particles are retained in the fabric pouch.
The potatoes, in a plastic bag with numerous ventilation holes, may be allowed to be in a storage room without air conditioning. A single pouch may be placed in the bag with the potatoes.
For example, amounts of DMN from about 0.02 gram to about 1.0 gram per pound of potatoes (˜0.5 kg) may be effectively used. For various reasons, lower amounts are desirable, consistent with effectiveness for the amount of potatoes, volume of voids, length of residence time of the potatoes in the package and range of temperatures to be experienced.

Take `Cc1ccc(C)c2ccccc12` [1,4-DMN, 1,4-dimethyl naphthalene]: the preclusion of sprouting result (0.2 grams of 1,4-DMN per one pound (~0.5 kg) of potatoes) is on record as “adequately precludes sprouting”. Moreover, where the note is “ten pounds of potatoes in ventilated plastic bag, one cotton pouch with about 5 grams silica gel and 2 grams 1,4-DMN, unconditioned store room, 30 days”, the “sprouting after 30 days” value is on record as “No significant sprouting”.
